Source: patent US8192962B2, “Processes for detecting toxic substances” (Daikin Industries, Ltd., priority 2001, dated 2012)

Tested on: Stress protein genes
Experiment: DNA chip mRNA expression in yeast, stress protein genes (Table 6)
Assay type: cell-based, Saccharomyces cerevisiae S288C
Protocol: Yeast (Saccharomyces cerevisiae S288C (α SUC2mal mel gap2 CUP1)) were incubated at 25° C. on YPD medium (yeast extract 1%, polypepton 2%, glucose 2%). One of toxic chemical substances was added to the cells at logarithmic growth phase, and the cells were further incubated for two hours. Cells were cultured without any chemical substance in the same condition, and were used as control. Concentrations of the chemical substances were defined to inhibit the growth of the yeast but not lead to death.
After completion of the incubation, the culture was centrifuged to collect the cells. To the cells, sodium acetate buffer (50 mM sodium acetate, 10 mM EDTA, 1% SDS) was added, and the mixture was shaken at 65° C. for five minutes, followed by returning to room temperature, and obtaining the supernatant, of which the procedures were repeated two times. To the supernatant, ½ amount of a solution of phenol/chloroform was added, and the mixture was centrifuged to give a supernatant, which was added with an equal amount of chloroform, and the mixture was centrifuged to give a supernatant. To the supernatant, an equal amount of isopropanol containing 0.3 M sodium acetate was added, and the mixture was allowed to stand at room temperature for 30 minutes, after which the mixture was centrifuged to give a sediment of the whole RNAs. Seventy % ethanol was added to the sediment, and the mixture was again centrifuged to give a sediment, which was then dried and dissolved in water. mRNA was isolated from the whole RNAs as followings. In view of the fact that a poly A chain is attached to the 3′ terminus of mRNA, a polynucleotide having a poly T structure which was immobilized on the surface of latex beads was used to trap the mRNA, and then the mRNA was washed and eluted with spine column (Oligotex-dT30<Super>mRNA Purification Kit, Takara). Reverse transcription of the mRNA was conducted with a reverse transcriptase (Super Script II Reverse Transcriptase; catalogue No. 18064-014, GibcoBRL) using fluorescence-labeled nucleotides to give cDNAs that were introduced with Cy3-dUTP or Cy5-dUTP during the reverse transcription.
The labeled cDNAs were dissolved in TE buffer (10mM Tris-HCl/1 mM EDTA, pH8.0), and the solution was dropped on the DNA chip containing the whole genes of yeast (DNA Chip Research Inc. Japan) so that the cDNAs were hybridized on the DNA chip at 65° C. for over 12 hours. The fluoresces intensity of the DNA chip was read with a scanner, and the ratio relative to the fluorescence intensity resulting from the absence of chemical substance was estimated as the following, which is shown in Tables 1 to 9: […]

C[S+](C)[O-] [(15), dimethylsulfoxide]
The level of expressed mRNA in the presence of chemical substance/The level of expressed mRNA in the absence of chemical substance (yeast gene YAL015C): 0.7 | The level of expressed mRNA in the presence of chemical substance/The level of expressed mRNA in the absence of chemical substance (yeast gene YBR044C): 0.9 | The level of expressed mRNA in the presence of chemical substance/The level of expressed mRNA in the absence of chemical substance (yeast gene YBR054W): 0.6 | The level of expressed mRNA in the presence of chemical substance/The level of expressed mRNA in the absence of chemical substance (yeast gene YBR067C): 3.3 | The level of expressed mRNA in the presence of chemical substance/The level of expressed mRNA in the absence of chemical substance (yeast gene YBR072W): 4.9 | The level of expressed mRNA in the presence of chemical substance/The level of expressed mRNA in the absence of chemical substance (yeast gene YBR126C): 1.0 | The level of expressed mRNA in the presence of chemical substance/The level of expressed mRNA in the absence of chemical substance (yeast gene YBR169C): 1.6 | The level of expressed mRNA in the presence of chemical substance/The level of expressed mRNA in the absence of chemical substance (yeast gene YCR083W): 1.0 | The level of expressed mRNA in the presence of chemical substance/The level of expressed mRNA in the absence of chemical substance (yeast gene YDL022W): 0.9 | The level of expressed mRNA in the presence of chemical substance/The level of expressed mRNA in the absence of chemical substance (yeast gene YDL025C): 1.0 | The level of expressed mRNA in the presence of chemical substance/The level of expressed mRNA in the absence of chemical substance (yeast gene YDR033W): 0.8 | The level of expressed mRNA in the presence of chemical substance/The level of expressed mRNA in the absence of chemical substance (yeast gene YDR077W): 6.1 | The level of expressed mRNA in the presence of chemical substance/The level of expressed mRNA in the absence of chemical substance (yeast gene YDR098C): 2.2 | The level of expressed mRNA in the presence of chemical substance/The level of expressed mRNA in the absence of chemical substance (yeast gene YDR155C): 2.5 | The level of expressed mRNA in the presence of chemical substance/The level of expressed mRNA in the absence of chemical substance (yeast gene YDR258C): 0.6 | The level of expressed mRNA in the presence of chemical substance/The level of expressed mRNA in the absence of chemical substance (yeast gene YDR293C): 1.7 | The level of expressed mRNA in the presence of chemical substance/The level of expressed mRNA in the absence of chemical substance (yeast gene YDR436W): 0.8 | The level of expressed mRNA in the presence of chemical substance/The level of expressed mRNA in the absence of chemical substance (yeast gene YDR513W): 1.3 | The level of expressed mRNA in the presence of chemical substance/The level of expressed mRNA in the absence of chemical substance (yeast gene YDR519W): 2.0 | The level of expressed mRNA in the presence of chemical substance/The level of expressed mRNA in the absence of chemical substance (yeast gene YEL030W): 0.8 | The level of expressed mRNA in the presence of chemical substance/The level of expressed mRNA in the absence of chemical substance (yeast gene YEL039C): 0.4 | The level of expressed mRNA in the presence of chemical substance/The level of expressed mRNA in the absence of chemical substance (yeast gene YER042W): 1.0 | The level of expressed mRNA in the presence of chemical substance/The level of expressed mRNA in the absence of chemical substance (yeast gene YER057C): 1.7 | The level of expressed mRNA in the presence of chemical substance/The level of expressed mRNA in the absence of chemical substance (yeast gene YER125W): 0.8 | The level of expressed mRNA in the presence of chemical substance/The level of expressed mRNA in the absence of chemical substance (yeast gene YFL014W): 6.3 | The level of expressed mRNA in the presence of chemical substance/The level of expressed mRNA in the absence of chemical substance (yeast gene YFL016C): 0.8 | The level of expressed mRNA in the presence of chemical substance/The level of expressed mRNA in the absence of chemical substance (yeast gene YFL020C): 1.4 | The level of expressed mRNA in the presence of chemical substance/The level of expressed mRNA in the absence of chemical substance (yeast gene YFR052W): 1.4 | The level of expressed mRNA in the presence of chemical substance/The level of expressed mRNA in the absence of chemical substance (yeast gene YGL073W): 0.9 | The level of expressed mRNA in the presence of chemical substance/The level of expressed mRNA in the absence of chemical substance (yeast gene YGL115W): 0.7 | The level of expressed mRNA in the presence of chemical substance/The level of expressed mRNA in the absence of chemical substance (yeast gene YGL181W): 1.5 | The level of expressed mRNA in the presence of chemical substance/The level of expressed mRNA in the absence of chemical substance (yeast gene YGR088W): 0.7 | The level of expressed mRNA in the presence of chemical substance/The level of expressed mRNA in the absence of chemical substance (yeast gene YHL028W): 0.6 | The level of expressed mRNA in the presence of chemical substance/The level of expressed mRNA in the absence of chemical substance (yeast gene YHL046C): 1.0 | The level of expressed mRNA in the presence of chemical substance/The level of expressed mRNA in the absence of chemical substance (yeast gene YHR057C): 1.2 | The level of expressed mRNA in the presence of chemical substance/The level of expressed mRNA in the absence of chemical substance (yeast gene YHR104W): 1.6 | The level of expressed mRNA in the presence of chemical substance/The level of expressed mRNA in the absence of chemical substance (yeast gene YIL011W): 0.9 | The level of expressed mRNA in the presence of chemical substance/The level of expressed mRNA in the absence of chemical substance (yeast gene YIL033C): 1.0 | The level of expressed mRNA in the presence of chemical substance/The level of expressed mRNA in the absence of chemical substance (yeast gene YIR037W): 1.0 | The level of expressed mRNA in the presence of chemical substance/The level of expressed mRNA in the absence of chemical substance (yeast gene YIR038C): 1.2 | The level of expressed mRNA in the presence of chemical substance/The level of expressed mRNA in the absence of chemical substance (yeast gene YJL128C): 1.2 | The level of expressed mRNA in the presence of chemical substance/The level of expressed mRNA in the absence of chemical substance (yeast gene YJL158C): 1.7 | The level of expressed mRNA in the presence of chemical substance/The level of expressed mRNA in the absence of chemical substance (yeast gene YJL165C): 1.0 | The level of expressed mRNA in the presence of chemical substance/The level of expressed mRNA in the absence of chemical substance (yeast gene YJR045C): 2.3 | The level of expressed mRNA in the presence of chemical substance/The level of expressed mRNA in the absence of chemical substance (yeast gene YJR090C): 1.6 | The level of expressed mRNA in the presence of chemical substance/The level of expressed mRNA in the absence of chemical substance (yeast gene YKL161C): 1.3 | The level of expressed mRNA in the presence of chemical substance/The level of expressed mRNA in the absence of chemical substance (yeast gene YKL164C): 1.2 | The level of expressed mRNA in the presence of chemical substance/The level of expressed mRNA in the absence of chemical substance (yeast gene YKL210W): 1.0 | The level of expressed mRNA in the presence of chemical substance/The level of expressed mRNA in the absence of chemical substance (yeast gene YKR053C): 0.3 | The level of expressed mRNA in the presence of chemical substance/The level of expressed mRNA in the absence of chemical substance (yeast gene YLL024C): 1.3 | The level of expressed mRNA in the presence of chemical substance/The level of expressed mRNA in the absence of chemical substance (yeast gene YLL026W): 0.9 | The level of expressed mRNA in the presence of chemical substance/The level of expressed mRNA in the absence of chemical substance (yeast gene YLL060C): 1.5 | The level of expressed mRNA in the presence of chemical substance/The level of expressed mRNA in the absence of chemical substance (yeast gene YLR006C): 0.9 | The level of expressed mRNA in the presence of chemical substance/The level of expressed mRNA in the absence of chemical substance (yeast gene YLR109W): 3.9 | The level of expressed mRNA in the presence of chemical substance/The level of expressed mRNA in the absence of chemical substance (yeast gene YML007W): 1.0 | The level of expressed mRNA in the presence of chemical substance/The level of expressed mRNA in the absence of chemical substance (yeast gene YML070W): 0.9 | The level of expressed mRNA in the presence of chemical substance/The level of expressed mRNA in the absence of chemical substance (yeast gene YMR021C): 1.0 | The level of expressed mRNA in the presence of chemical substance/The level of expressed mRNA in the absence of chemical substance (yeast gene YMR173W): 2.5 | The level of expressed mRNA in the presence of chemical substance/The level of expressed mRNA in the absence of chemical substance (yeast gene YMR186W): 1.3 | The level of expressed mRNA in the presence of chemical substance/The level of expressed mRNA in the absence of chemical substance (yeast gene YNL064C): 0.7 | The level of expressed mRNA in the presence of chemical substance/The level of expressed mRNA in the absence of chemical substance (yeast gene YNL160W): 0.7 | The level of expressed mRNA in the presence of chemical substance/The level of expressed mRNA in the absence of chemical substance (yeast gene YNR076W): 1.1 | The level of expressed mRNA in the presence of chemical substance/The level of expressed mRNA in the absence of chemical substance (yeast gene YOL064C): 1.0 | The level of expressed mRNA in the presence of chemical substance/The level of expressed mRNA in the absence of chemical substance (yeast gene YOL161C): 1.1 | The level of expressed mRNA in the presence of chemical substance/The level of expressed mRNA in the absence of chemical substance (yeast gene YOR008C): 0.9 | The level of expressed mRNA in the presence of chemical substance/The level of expressed mRNA in the absence of chemical substance (yeast gene YOR009W): 0.6 | The level of expressed mRNA in the presence of chemical substance/The level of expressed mRNA in the absence of chemical substance (yeast gene YOR010C): 0.6 | The level of expressed mRNA in the presence of chemical substance/The level of expressed mRNA in the absence of chemical substance (yeast gene YOR027W): 1.4 | The level of expressed mRNA in the presence of chemical substance/The level of expressed mRNA in the absence of chemical substance (yeast gene YPL059W): 1.0 | The level of expressed mRNA in the presence of chemical substance/The level of expressed mRNA in the absence of chemical substance (yeast gene YPL106C): 1.1 | The level of expressed mRNA in the presence of chemical substance/The level of expressed mRNA in the absence of chemical substance (yeast gene YPL140C): 0.7 | The level of expressed mRNA in the presence of chemical substance/The level of expressed mRNA in the absence of chemical substance (yeast gene YPL194W): 1.4 | The level of expressed mRNA in the presence of chemical substance/The level of expressed mRNA in the absence of chemical substance (yeast gene YPL223C): 1.5 | The level of expressed mRNA in the presence of chemical substance/The level of expressed mRNA in the absence of chemical substance (yeast gene YPL240C): 1.2 | The level of expressed mRNA in the presence of chemical substance/The level of expressed mRNA in the absence of chemical substance (yeast gene YPR005C): 2.7
